Data from patent publication US20190160131A1, “METHOD FOR CELL REJUVENATION USING ROSA ROXBURGHII FRUIT EXTRACTS” (TCI CO., LTD, priority 2017, published 2019).

System: human skin fibroblast CCD-966SK
Assay: Chemical (etoposide)-induced telomere shortening, telomere length by qPCR
Format: cell-based
Conditions: 30 μM etoposide only, 5 days of incubation, compared to control cells (FIG. 8)
Experimental: Telomere length is determined based on qPCR technique. First, genomic DNA samples were extracted from cells. Next, the genomic DNA samples (20 ng) were subjected to qPCR to obtain melting curves. The qPCR was performed with a PCR thermocycler using KAPA CYBR FAST qPCR Kit (2×) (KAPA Biosystems) and primers of the telomere and the single-copy 36B4 gene (Table 2). In addition, serially diluted standards of the telomere (10- to 10^6-fold dilutions starting from 60 pg) and the 36B4 gene (10- to 10^6-fold dilutions starting from 200 pg) were prepared and subjected to qPCR under the following reaction conditions to obtain standard curves (Ct/kb): a denaturation phase at 95° C. for 10 minutes followed by 40 cycles of denaturation (95° C.) for 15 seconds and annealing (60° C.) for 1 minute. The telomere standard was an oligonucleotide having 14 repeats of TTAGGG (SEQ ID NO: 7); the standard of 36B4 gene had the nucleotide sequence of SEQ ID NO:8. Lastly, the average length of telomere in the genomic DNA samples was determined from the aforementioned standard curves and the cycle threshold values of telomere and 36B4 gene in the genomic DNA samples.
The protective effect of Rosa roxburghii fruit water extract on chromosomal telomere was investigated in human skin fibroblast CCD-966SK. […]

COc1cc([C@@H]2c3cc4c(cc3[C@@H](O[C@@H]3O[C@@H]5CO[C@@H](C)O[C@H]5[C@H](O)[C@H]3O)[C@H]3COC(=O)[C@H]23)OCO4)cc(OC)c1O [etoposide]
relative length of telomeres: significantly shortened
